# Read-outs that look alike come from different tables or passages of the source.
# Legend:
# [1] = test system: Key Grass and Sedge Weeds as well as Grass Crops; experiment: Post-Emergent Test II (Table 6); type: in vivo; settings: for Visual Growth Reduction (%) 14 Days After Application, CYPSS: CYPSS (CYPES: yellow nutsedge, Cyperus esculentus); for Visual Growth Reduction (%) 14 Days After Application, DIGSA: DIGSA: crabgrass (Digitaria sanguinalis); for Visual Growth Reduction (%) 14 Days After Application, ECHSS: ECHSS (ECHCG: barnyardgrass, Echinochloa crus-galli); for Visual Growth Reduction (%) 14 Days After Application, ORYSS: ORYSS (ORYSA: rice, Oryza sativa); for Visual Growth Reduction (%) 14 Days After Application, ORYSS / Visual Growth Reduction (%) 14 Days After Application, TRZSS / Visual Growth Reduction (%) 14 Days After Application, ZEAMX: crop; for Visual Growth Reduction (%) 14 Days After Application, SETFA: SETFA: giant foxtail (Setaria faberi); for Visual Growth Reduction (%) 14 Days After Application, SORVU: SORVU: johnsongrass (Sorghum vulgare); for Visual Growth Reduction (%) 14 Days After Application, TRZSS: TRZSS (TRZAS: wheat, spring, Triticum aestivum); for Visual Growth Reduction (%) 14 Days After Application, ZEAMX: ZEAMX: maize, corn (Zea mays)
# Method: (§1) Seeds or nutlets of the desired test plant species were planted in Sun Gro Metro-Mix® 360 planting mixture, which typically has a pH of 6.0 to 6.8 and an organic matter content of about 30 percent, in plastic pots with a surface area of 64 square centimeters. When required to ensure good germination and healthy plants, a fungicide treatment and/or other chemical or physical treatment was applied. The plants were grown for 7-21 days in a greenhouse with an approximate 15 h photoperiod which was maintained at about 23-29° C. during the day and 22-28° C. during the night. Nutrients and water were added on a regular basis and supplemental lighting was provided with overhead metal halide 1000-Watt lamps as necessary. The plants were employed for testing when they reached the first or second true leaf stage.
# (§2) A weighed amount, determined by the highest rate to be tested, of each test compound was placed in a 25 mL glass vial and was dissolved in 4 mL of a 97:3 v/v mixture of acetone and DMSO to obtain concentrated stock solutions. […] The concentrated stock solutions obtained were diluted with 20 mL of an aqueous mixture containing acetone, water, isopropyl alcohol, DMSO, Atplus 411F crop oil concentrate, and Triton® X-155 surfactant in a 48.5:39:10:1.5:1.0:0.02 v/v ratio to obtain spray solutions containing the highest application rates. Additional application rates were obtained by serial dilution of 12 mL of the high rate solution into a solution containing 2 mL of 97:3 v/v mixture of acetone and DMSO and 10 mL of an aqueous mixture containing acetone, water, isopropyl alcohol, DMSO, Atplus 411F crop oil concentrate, and Triton X-155 surfactant in a 48.5:39:10:1.5:1.0:0.02 v/v ratio to obtain ½×, ¼×, ⅛× and 1/16× rates of the high rate. Compound requirements are based upon a 12 mL application volume at a rate of 187 liters per hectare (L/ha). Formulated compounds were applied to the plant material with an overhead Mandel track sprayer equipped with 8002E nozzles calibrated to deliver 187 L/ha over an application area of 0.503 square meters at a spray height of 18 inches (43 cm) above the average plant canopy height. Control plants were sprayed in the same manner with the solvent blank.
# (§3) The treated plants and control plants were placed in a greenhouse as described above and watered by subirrigation to prevent wash-off of the test compounds. After 14 days, the condition of the test plants as compared with that of the untreated plants was determined visually and scored on a scale of 0 to 100 percent where 0 corresponds to no injury and 100 corresponds to complete kill and presented as indicated in Table A. Some of the compounds tested, application rates employed, plant species tested, and results are given in Table 5.
# [2] = test system: Key Broadleaf Weed and Crop Species; experiment: Post-Emergent Test II (Table 5); type: in vivo; settings: post-emergence, 336 h; for pest or weed control at 70 g/ha: application rate 70 (kg ai/ha; footnote: g ai/ha); for pest or weed control at 140 g/ha: application rate 140 (kg ai/ha; footnote: g ai/ha)
# Method: as §1, §2, §3
# [3] = Abutilon theophrasti, ABUTH: velvetleaf (Abutilon theophrasti), read-out: Visual Growth Reduction (%) 14 Days After Application ABUTH
# [4] = Amaranthus retroflexus, AMARE: redroot pigweed (Amaranthus retroflexus), read-out: Visual Growth Reduction (%) 14 Days After Application AMARE
# [5] = Brassica napus, BRSSS: oilseed rape, canola (Brassica napus), read-out: Visual Growth Reduction (%) 14 Days After Application BRSSS
# [6] = Chenopodium album, CHEAL: lambsquarters (Chenopodium album), read-out: Visual Growth Reduction (%) 14 Days After Application CHEAL
# [7] = Euphorbia heterophylla, EPHHL: wild poinsettia (Euphorbia heterophylla), read-out: Visual Growth Reduction (%) 14 Days After Application EPHHL
# [8] = Helianthus annuus, HELAN: sunflower (Helianthus annuus), read-out: Visual Growth Reduction (%) 14 Days After Application HELAN
# [9] = Viola tricolor, VIOTR: wild pansy (Viola tricolor), read-out: Visual Growth Reduction (%) 14 Days After Application VIOTR
Compound,"Visual Growth Reduction (%) 14 Days After Application, CYPSS ([1]; 70 g ai/ha)","Visual Growth Reduction (%) 14 Days After Application, CYPSS ([1]; 140 g ai/ha)","Visual Growth Reduction (%) 14 Days After Application, DIGSA ([1]; 70 g ai/ha)","Visual Growth Reduction (%) 14 Days After Application, DIGSA ([1]; 140 g ai/ha)","Visual Growth Reduction (%) 14 Days After Application, ECHSS ([1]; 70 g ai/ha)","Visual Growth Reduction (%) 14 Days After Application, ECHSS ([1]; 140 g ai/ha)","Visual Growth Reduction (%) 14 Days After Application, ORYSS ([1]; 70 g ai/ha)","Visual Growth Reduction (%) 14 Days After Application, ORYSS ([1]; 140 g ai/ha)","Visual Growth Reduction (%) 14 Days After Application, SETFA ([1]; 70 g ai/ha)","Visual Growth Reduction (%) 14 Days After Application, SETFA ([1]; 140 g ai/ha)","Visual Growth Reduction (%) 14 Days After Application, SORVU ([1]; 70 g ai/ha)","Visual Growth Reduction (%) 14 Days After Application, SORVU ([1]; 140 g ai/ha)","Visual Growth Reduction (%) 14 Days After Application, TRZSS ([1]; 70 g ai/ha)","Visual Growth Reduction (%) 14 Days After Application, TRZSS ([1]; 140 g ai/ha)","Visual Growth Reduction (%) 14 Days After Application, ZEAMX ([1]; 70 g ai/ha)","Visual Growth Reduction (%) 14 Days After Application, ZEAMX ([1]; 140 g ai/ha)","pest or weed control at 70 g/ha [2, 3] [%]","pest or weed control at 140 g/ha [2, 3] [%]","pest or weed control at 70 g/ha [2, 4] [%]","pest or weed control at 140 g/ha [2, 4] [%]",other results
"COC(=O)c1nc(-c2ccc(Cl)c(F)c2Cl)c(F)c(N)c1Cl [Compound 19, Methyl 4-amino-3-chloro-6-(2,4-dichloro-3-fluorophenyl)-5-fluoropicolinate]",A (95-100),A (95-100),E (45-59),C (75-84),C (75-84),A (95-100),F (30-44),E (45-59),C (75-84),B (85-94),B (85-94),B (85-94),C (75-84),C (75-84),B (85-94),A (95-100),95 to 100,95 to 100,95 to 100,95 to 100,"pest or weed control at 70 g/ha [2, 5]: 95 to 100%; pest or weed control at 140 g/ha [2, 5]: 95 to 100%; pest or weed control at 70 g/ha [2, 6]: 85 to 94%; pest or weed control at 140 g/ha [2, 6]: 95 to 100%; pest or weed control at 70 g/ha [2, 7]: 85 to 94%; pest or weed control at 140 g/ha [2, 7]: 95 to 100%; pest or weed control at 70 g/ha [2, 8]: 95 to 100%; pest or weed control at 140 g/ha [2, 8]: 95 to 100%; pest or weed control at 70 g/ha [2, 9]: 85 to 94%; pest or weed control at 140 g/ha [2, 9]: 95 to 100%"
"Nc1cc(-c2ccc(Cl)c(F)c2C(F)F)nc(C(=O)O)c1Cl [Compound 13, 4-Amino-3-chloro-6-(4-chloro-2-(difluoromethyl)-3-fluorophenyl)picolinic acid]",G (0-29),G (0-29),G (0-29),G (0-29),G (0-29),G (0-29),G (0-29),G (0-29),G (0-29),G (0-29),G (0-29),G (0-29),G (0-29),G (0-29),G (0-29),G (0-29),75 to 84,0 to 29,95 to 100,95 to 100,"pest or weed control at 70 g/ha [2, 5]: 85 to 94%; pest or weed control at 140 g/ha [2, 5]: 85 to 94%; pest or weed control at 70 g/ha [2, 6]: 95 to 100%; pest or weed control at 140 g/ha [2, 6]: 95 to 100%; pest or weed control at 70 g/ha [2, 7]: 0 to 29%; pest or weed control at 140 g/ha [2, 7]: 0 to 29%; pest or weed control at 70 g/ha [2, 8]: 85 to 94%; pest or weed control at 140 g/ha [2, 8]: 85 to 94%; pest or weed control at 70 g/ha [2, 9]: 0 to 29%; pest or weed control at 140 g/ha [2, 9]: 0 to 29%"

# Source: patent US10765114B2, “4-amino-6-(pyridyl and 2-substitutedphenyl)-picolinates and 6-amino-2-(pyridyl and 2-substitutedphenyl)-pyrimidine-4-carboxylates and their use as herbicides” (Dow AgroSciences LLC, priority 2013, dated 2020)
